Source: patent EP2435019B1, “DODECA-2E,4E-DIENE AMIDES AND THEIR USE AS MEDICAMENTS AND COSMETICS” (Dr. August Wolff GmbH & Co. KG Arzneimittel, priority 2009, dated 2010)
Like-named read-outs stand apart in the source and are kept apart here.

Experiments:
[1] = system: Arachidonoylethanolamide Transport (AEAT); test: Cellular uptake of [3H]-AEA in U937 cells (assay C); format: cell-based; settings: Homo sapiens, U-937; [3H]-AEA uptake, assay C (Tables 2 and 3)
[2] = target: CB2 (Homo sapiens, UniProt P34972); test: Radioligand displacement assay on CB2 receptor; format: binding; set-up: purchased Perkin Elmer RBXCB2M; settings: for Ki: displacement of 0.11 nM [3H]CP55,940, membrane recombinantly over-expressing CB2, read-out: Receptor affinity Ki CB2
Sequence of CB2 (P34972 whole entry): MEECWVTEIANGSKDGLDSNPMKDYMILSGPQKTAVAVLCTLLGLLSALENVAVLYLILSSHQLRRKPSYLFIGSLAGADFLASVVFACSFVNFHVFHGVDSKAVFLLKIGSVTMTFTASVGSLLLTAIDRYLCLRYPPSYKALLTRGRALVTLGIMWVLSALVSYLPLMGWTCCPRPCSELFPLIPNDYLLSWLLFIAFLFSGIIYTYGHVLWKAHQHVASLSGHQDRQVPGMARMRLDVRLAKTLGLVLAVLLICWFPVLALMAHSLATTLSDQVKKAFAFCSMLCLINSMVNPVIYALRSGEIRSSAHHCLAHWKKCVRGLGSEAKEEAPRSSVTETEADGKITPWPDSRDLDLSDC
Procedure: (§1) For the CB1 receptor, binding experiments were performed in the presence of 0.39 nM of the radioligand [^3H]CP55,940 (168 Ci/mmol) (Perkin Elmer, Waltham, MA, US) at 30°C in siliconized glass vials together with 7.16 µg of membrane recombinantly over-expressing CB1 (No. RBHCB1M, Perkin Elmer, Waltham, MA, US), which was resuspended in 0.2 mL (final volume) binding-buffer (50 mM TRIS-HCl, 2.5 mM EGTA, 5 mM MgCl2, 0.5 mg/mL fatty acid free BSA, pH 7.4). Test compounds were present at varying concentrations and the nonspecific binding of the radioligand was determined in the presence of 10 µM CP55,940 (Tocris Cookson Ltd., Bristol, UK). After 1.5 h incubation, the suspension was rapidly filtered through 0.05% polyethylenimine pre-soaked GF/C glass fiber filters on a 96-well cell harvester and washed nine times with 0.5 mL ice-cold washing-buffer (50 mM TRIS-HCl, 2.5 mM EGTA, 5 mM MgCl2, 2% BSA, pH 7.4). Radioactivity on filters was measured with a Beckman LS 6500 scintillation counter in 3 mL Ultima Gold scintillation liquid (Perkin Elmer, Waltham, MA, US). Data collected from three independent experiments performed in triplicates were normalized between 100% and 0% specific binding for [^3H]CP55,940. […] Derived from the dissociation constant (KD) of [^3H]CP55,940 and the concentration-dependent displacement (IC50 value), inhibition constants (Ki) of competitor compounds were calculated using the Cheng-Prusoff equation [Ki = IC50/(1+ L/KD)].
For CB2-receptor binding studies 3.8 µg of membrane recombinantly over-expressing CB2 (No. RBXCB2M, Perkin Elmer, Waltham, MA, US) were resuspended in 0.6 mL binding buffer (see above) together with 0.11 nM of the radioligand [^3H]CP55,940. The CB2-binding assay was conducted in the same manner as for CB1.

[3] = target: T1, CB1 (Homo sapiens, UniProt P21554); test: Radioligand displacement assay on CB1 receptor; format: binding; settings: for Ki: displacement of 0.39 nM [3H]CP55,940, membrane recombinantly over-expressing CB1, read-out: Receptor affinity Ki CB1
T1 construct: purchased Perkin Elmer RBHCB1M
T1 sequence (P21554 whole entry): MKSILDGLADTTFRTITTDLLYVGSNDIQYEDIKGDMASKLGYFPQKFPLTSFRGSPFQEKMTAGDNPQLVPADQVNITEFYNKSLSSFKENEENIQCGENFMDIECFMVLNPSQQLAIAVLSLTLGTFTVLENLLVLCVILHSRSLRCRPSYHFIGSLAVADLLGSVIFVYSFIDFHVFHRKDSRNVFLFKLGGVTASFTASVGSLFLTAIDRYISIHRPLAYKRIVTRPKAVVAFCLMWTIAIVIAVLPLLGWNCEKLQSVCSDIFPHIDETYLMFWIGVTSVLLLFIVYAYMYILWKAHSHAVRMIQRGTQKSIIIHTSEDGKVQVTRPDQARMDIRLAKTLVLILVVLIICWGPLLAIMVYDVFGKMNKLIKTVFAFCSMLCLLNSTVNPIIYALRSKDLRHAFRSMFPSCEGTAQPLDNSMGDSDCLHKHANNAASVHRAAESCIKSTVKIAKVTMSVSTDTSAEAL
Procedure: as §1

[4] = Critical micelle concentration (CMC) measurement, dye micellization; format: physicochemical; settings: fluorescein dye micellization in water, pH 6.9, room temperature
Procedure: Dye micellization was carried out with a modified version of the method described by Eliyahu et al., Novel dextran-spermine conjugates as transfecting agents: comparing water-soluble and micellar polymers. […] Experiments were carried out on 96-well microtiter plates (excitation at 485 nm, emission at 535 nm). Since the emission of fluorescein is pH-dependent, the pH of the mixture was kept constant at 6.9. The CMC range was determined as the concentration range where the first statistically significant increase in fluorescence was detected.

[5] = target: T2, FAAH (Sus scrofa, UniProt Q9TUI8); test: Fatty acid amide hydrolase (FAAH) inhibition, pig brain homogenate (assay D); format: biochemical; settings: 1 µM; pig brain homogenate (assay D)
T2 construct: 165 µl of diluted pig brain homogenate; from tissue; host or cells: pig brain homogenate
T2 sequence (Q9TUI8 1-579): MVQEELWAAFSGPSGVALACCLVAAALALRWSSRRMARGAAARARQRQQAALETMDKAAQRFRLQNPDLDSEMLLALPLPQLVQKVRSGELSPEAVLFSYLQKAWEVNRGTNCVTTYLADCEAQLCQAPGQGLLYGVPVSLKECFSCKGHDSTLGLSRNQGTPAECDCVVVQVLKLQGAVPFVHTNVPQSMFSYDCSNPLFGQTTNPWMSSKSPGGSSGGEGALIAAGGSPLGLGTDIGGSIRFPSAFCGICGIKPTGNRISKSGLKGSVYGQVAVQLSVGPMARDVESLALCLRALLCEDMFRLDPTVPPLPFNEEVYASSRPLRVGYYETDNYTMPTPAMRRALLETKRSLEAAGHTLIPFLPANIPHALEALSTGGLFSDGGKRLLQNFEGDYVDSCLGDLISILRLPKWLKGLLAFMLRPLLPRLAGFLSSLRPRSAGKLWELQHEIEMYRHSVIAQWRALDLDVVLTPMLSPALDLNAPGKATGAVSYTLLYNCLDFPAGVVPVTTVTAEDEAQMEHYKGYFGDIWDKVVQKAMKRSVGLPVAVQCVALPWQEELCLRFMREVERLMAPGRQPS
Procedure: FAAH activity was assessed using pig brain homogenate according to the method described by Omeir et al., Arachidonoyl ethanolamide-[1,2-14C] as a substrate for anandamide amidase. Life Sci. 1995;56(23-24):1999-2005, and adapted by Fowler et al., Ibuprofen inhibits rat brain deamidation of anandamide at pharmacologically relevant concentrations. Mode of inhibition and structure-activity relationship. J Pharmacol Exp Ther. 1997 Nov;283(2):729-34. Briefly, 10 µl of test compounds at the adequate concentration or solvent were incubated at 37°C for 20 min with 165 µl of diluted pig brain homogenate in 10 mM Tris-HCl and 1 mM EDTA, pH 7.6 (corresponding to 100 µg/ml of total protein), 1% w/v fatty acid free BSA (Sigma, San Louis, MO, US) and 25 µl of a mixture 1:1 of nonradioactive AEA [^3H]-AEA (60 Ci mmol^-1) (concentration in the assay was 2 µM). Successively, 400 µl of a mixture 1:1 (v/v) of methanol:chloroform was added at each sample and, after vigorous vortexing, aqueous and organic phases were separated by centrifugation at 10000 rpm for 10 min. The radioactivity associated to the [^3H]-ethanolamine (produced by FAAH-catalysed breakdown of [^3H]-AEA) was measured upon addition of 3 ml of Ultima Gold scintillation liquid (Perkin Elmer, Waltham, MA, US) to 200 µl of the aqueous (upper) phase, using a Beckman LS6500 scintillation counter. Results were expressed as % of FAAH activity vs. pig brain homogenate treated only with solvent.

[6] = system: NO2^- production; test: NO2- production in LPS-stimulated human macrophages (Griess reagent); format: cell-based; settings: Figure 5; LPS 500 ng/ml; 5 µM for 18 h
Procedure: (§2) • Figure 1: AEA re-uptake inhibition of 2E,4E-dieneamides 1 and 9 into human primary monocytes and U937 cells. […] Data are mean values ± SEM of 3 independent experiments in a sigmoidal dose-response curve. • Figure 2: Concentration-dependent effects of 4 and 5 on FAAH activity. […] The maximal inhibition (32%) of 5 was measured at 1 µM. Data are mean values ± SEM of 3 independent experiments. • Figure 3: Effects of low nM concentrations of N-alkylamide 7 on FAAH activity alone and in combination with the FAAH inhibitor URB597. […] Data are mean values ± SEM of 3 independent experiments. • Figure 4: 1 and 9 inhibit LPS-induced TNF-alpha release into culture medium (measured by ELISA). Human macrophages (10^6 cells) were stimulated with LPS (500 ng/ml) and treated with UCM707 and/or compounds 1 and 9 at 5 µM for 18 h. N = 3 ± SEM. • Figure 5: UCM707 (positive control) and compounds 1 and 9 diminish NO2^- production. Human macrophages (10^6 cells) were stimulated with LPS (500 ng/ml) and treated with UCM707 and/or compounds 1 and 9 at 5 µM for 18 h. Culture supernatants were assayed for nitrite levels, using the Griess reagent as a reflection of NO production. Results are the mean ± SEM of four independent experiments performed in duplicate • Figure 6: In CB receptor expressing human HaCaT keratinocytes (10^6 cells) UCM707 (control) 1 and 9 like the endocannabinoid anandamide (each 5 µM) inhibited tolerogen (10 µg/ml) induced chemokine IL-8 (6h stimulation and incubation). N = 3 ± SEM.

[7] = system: Arachidonoylethanolamide Transport (AEAT); test: Cellular uptake of [3H]-AEA in U937 cells (assay C); format: cell-based, Human; settings: Figure 1(b); mean ± SEM of 3 independent experiments; read-out: EC50 value, AEA re-uptake inhibition
Procedure: 5x10^5 cells were collected and suspended in 500 µL of sterile PBS (Sigma, San Louis, MO, US) using glass silanized tubes. Cells were pre-incubated 10 min at 37°C in presence of test compounds in a concentration range of 10^-8 - 10^-4 M or in presence of the same amount of solvent (control). Then a mixture of 50 nM [^3H]-AEA (60 Ci/mmol) (American Radiolabeled Chemicals, Inc., San Louis, MO, US) and 50 nM of nonradioactive AEA (Tocris Cookson Ltd., Bristol, UK) was added and samples were incubated at 37°C for different times in the range of 1-60 min. The reaction was stopped by rapid filtration over Whatman GF/C filters pre-soaked in 0,25 % BSA. […] The filters-bound radioactivity was measured using a Beckman LS6500 scintillation counter. Results were expressed as % of AEA uptake versus cells treated with solvent and the EC50 and IC50 values were calculated from the sigmoidal curves, which were generated using the GraphPad Prism (GraphPad Software, San Diego, CA, US).

[8] = system: IL-8; test: Induced chemokine IL-8 in HaCaT keratinocytes; format: cell-based, human; settings: Figure 6, 5 µM, tolerogen 10 µg/ml, 6h
Procedure: as §2

[9] = system: [3H]-AEA uptake; test: Cellular uptake of [3H]-AEA in human primary monocytes (assay C); format: cell-based; settings: Figure 1(a), 1 µM
Procedure: as §2, with “Results are the mean ± SEM of four independent experiments performed in duplicate • Figure 6: In CB receptor expressing human HaCaT keratinocytes (10^6 cells) UCM707 (control) 1 and 9 like the endocannabinoid anandamide (each 5 µM) inhibited tolerogen (10 µg/ml) induced chemokine IL-8 (6h stimulation and incubation). N = 3 ± SEM.” left out
Human lymphoma U937 cells were grown in RPMI 1640 medium (Invitrogen, Basel, Switzerland) supplemented with 10% fetal bovine serum, […] fungizone (amphotericin B), 100 units/ml penicillin, 100 µg/ml streptomycin, and 2 mM L-glutamine (all from Invitrogen) and selected for the cellular AEA uptake assay. […] The filters-bound radioactivity was measured using a Beckman LS6500 scintillation counter. Results were expressed as % of AEA uptake versus cells treated with solvent and the EC50 and IC50 values were calculated from the sigmoidal curves, which were generated using the GraphPad Prism (GraphPad Software, San Diego, CA, US).

Row | SMILES | EC50 [1] [µM] | Ki [2] [µM] | Ki [3] [µM] | CMC [4] [µM] | FAAH inhibition at 1 µM [5] | affinity towards CB2 (in words) ([2]; summary of Table 3) | affinity towards CB1 (in words) ([3]; summary of Table 3) | NO2^- production [6] | EC50 [7] [µM] | tolerogen induced chemokine IL-8 [8] | [3H]-AEA uptake inhibition [9]
1 | CCCCCCC/C=C/C=C/C(=O)N1CCCC1 [Compound D, (2E,4E)-1-(pyrrolidin-1-yl)dodeca-2,4-dien-1-one] | > 10 | < 10 | > 20 | >5 | <10 % of control |  |  |  |  |  | 
2 | CCCCCCC/C=C/C=C/C(=O)N1CCCCC1 [Compound E, (2E,4E)-1-(piperidin-1-yl)dodeca-2,4-dien-1-one] | > 10 | 2.64 ± 0.224 | 2.19 ± 0.18 | >5 | <10 % of control | moderate affinity | moderate affinity |  |  |  | 
3 | CCCCC/C=C\C/C=C\C/C=C\C/C=C\CCCC(=O)NCc1ccoc1 [UCM707, reference compound] |  |  |  |  |  |  |  | diminish | 1.42 ± 0.296 | inhibited | clearly less active
4 | CCCCC/C=C\C/C=C\C/C=C\C/C=C\CCCC(=O)NCCO [anandamide, N-arachidonoylethanolamide, reference compound] |  |  |  |  |  |  |  |  |  | inhibited | 
